Experiments:
[1] = molecular target: T1, Aβ42 fibrillar aggregates (Homo sapiens, UniProt P05067); assay: ThT binding assay, dissolution of preformed Aβ42 fibrils; assay type: biochemical; conditions: after sixth day of incubation
T1 construct: commercially available β-amyloid peptide (1-42), human; purchased marck (so in the source) PP69-.025 mg
Procedure: Monomeric form of Aβ42 peptide was prepared by dissolving 0.25 mg of commercially available β-amyloid peptide (1-42), human (cat: PP69-.025 mg), marck peptide in 250 µL of hexafluoro-2-propanol (HFIP) solvent to obtain a Aβ42 solution. This solution was incubated at room temperature for 1 hour, further to which the HFIP solvent was removed by nitrogen gas flow to obtain the monomeric Aβ42 peptide. To prepare a fibrillar sample of Aβ42 peptide, 0.025 mg of Aβ42 peptide was dissolved in […] of PBS buffer (pH = 7.4; contains 2% of DMSO or 100 mM NaOH) to obtain a monomeric Aβ42 solution and the peptide concentration in this solution was calculated through UV-Visible absorbance studies (ε = 1450 cm^-1 M^-1). The Aβ42 monomeric solution was incubated for 5 days in PBS buffer (pH = 7.4) to allow for the full phase formation of Aβ42 fibrils. The presence of Aβ42 fibrils was further confirmed by ThT assay.
The ability of NMI compounds (TGR63, TGR64 and TGR65) to prevent Aβ42 fibrillar assembly (inhibition) and to break down the preformed fibrils (dissolution) was evaluated using thioflavin (ThT) binding assay. Aβ42 fibrils at a concentration of 10 µM and its aggregates, were used to study the effect of NMI compounds (TGR63, TGR64 and TGR65) at varying concentrations on both inhibition and dissolution assays. For the inhibition assay, all the NMI compounds (TGR63, TGR64 and TGR65) were added independently to Aβ peptide (10 µM) at 0 h of the experiment, whereas for the aggregates dissolution assay they were added to Aβ42 fibrillar aggregates grown for 2 days. Upon incubating for a predetermined period, Aβ42 inhibitor samples were analyzed using ThT by measuring the fluorescence change at 485 nm as presented in FIG. 1(b) and FIG. 1(c), wherein the error bars represent the standard deviation (SD) of the fluorescence measurement. Fluorescence values were normalized to maximal fluorescence intensity at 485 nm compared to that of the control (Aβ42 with no inhibitor). Experiments were performed at various stoichiometric ratios (Aβ42/inhibitor) of 1:1, 1:2, and 1:5 with a fixed concentration of Aβ42 at 10 µM. Each experiment was repeated three times (n = 3). […] TGR 63 recorded 80% dissolution efficiency while TGR 64 and TGR 65 recorded 75% and 78% dissolution efficiency respectively, for the stoichiometric ratio of 1:5.

Aβ42 peptide = molecular target: T2, Aβ42 peptide (Homo sapiens, UniProt P05067); assay: 1H NMR study of molecular interactions between TGR63 and Aβ42; assay type: binding; conditions: Aβ42 10 µM, D2O (12%) containing PBS, 24, 48 and 72 h
T2 construct: commercially available β-amyloid peptide (1-42), human; purchased marck (so in the source) PP69-.025 mg
Procedure: Nuclear magnetic resonance (NMR) spectroscopy was performed to ascertain the molecular level interactions between TGR63 and Aβ42 peptide. ^1H NMR spectra of TGR63 were acquired in absence and presence of Aβ42 (10 µM) peptides using the WATERGATE sequence for solvent suppression in deuterium oxide (D2O, 12%) containing PBS at different incubation time points (24, 48 and 72 h). […] The aromatic protons of NMI and aniline moieties (a-f) appeared at 6.5-8.8 ppm, respectively. However, the splitting patterns of all the aromatic peaks were completely readjusted undergoing a significant downfield shift over a period of time in the presence of Aβ42 peptide. This observation confirmed the interaction of aromatic moieties (π-electron rich) of TGR63 with native and misfolded Aβ42 peptides, which leads to alteration in the extent of nuclei and proximal electron coupling (J-couplings).

APP/PS1 mice = assay: Amyloid burden in brain by OC immunohistochemistry; assay type: in vivo
Description: To evaluate the activity of TGR63 to ameliorate amyloid burden in in vivo AD model, APP/PS1 mice were bred, maintained and characterized (WT: wild type; AD: APP/PS1 positive) according to the Jackson Laboratory protocols. The double transgenic APP/PS1 mice (B6C3-Tg (APPswe, PSEN IdE9)85Dbo/J; stock number 004462), which express human transgenes APP and presenilin 1 (PS1) in the central nervous system (CNS) contains the Swedish and […], respectively. The K595N/M596L (Swedish) mutation favors the amyloidogenic processing of APP protein, and PS1 mutation ([…]) elevates the production of Aβ peptides through modifying the intra-membrane γ-complex. The presence of Aβ plaques in the APP/PS 1 AD phenotypic mouse brain was confirmed and compared with the healthy brain by Aβ plaques-specific staining protocols. FIG. 13 depicts the Staining of amyloid plaques with OC primary antibody and ThT or CQ probe, FIG. 13A represent the high-resolution confocal microscopy images of cortex and hippocampus regions of the AD mouse brain, immunostained with OC antibody (red), DAPI (blue) and ThT (green). The merged images display significant overlap between ThT and OC staining to confirm the amyloid deposition (pointed with white arrows), FIG. 13A represent the visualization of amyloid deposits associated neuronal damage: The DIC images of different regions of AD. The merged images of DIC and confocal microscopy images show amyloid plaques associated brain damage (pointed out with red arrows). The brains were harvested from the age matched WT and AD mice and treated with PFA (4%) and sucrose solution (30%) for the sagittal brain sectioning (40 µm sections). The brain sections were co-stained with ThT (λex= 442 nm, λem= 482 nm) and OC primary antibody followed by fluorescently labeled secondary antibody (λex= 633 nm, λem= 650 nm) or CQ to visualize and confirm the amyloid plaques deposition. […] Similar fluorescence signals (green and red) were absent in the age-matched WT brain section, confirming the amyloid plaques-free healthy brain (FIG. 13A). The hippocampal damage, a hallmark of advanced AD condition was partially observed in 14 month old APP/PS1 mice. Age-matched AD, and WT cohorts were administered with TGR63 (5 mg/kg body weight/day) and vehicle starting from the age of 6 months following the treatment protocols as shown in FIG. 14. The experimental mice were sacrificed after completing the behavioral studies (14 months) to investigate amyloid deposits in the brain using immunohistochemistry. The sagittal brain sections were permeabilized and blocked with PBTx (0.1 M PBS and 0.1% TritonX-100) and goat serum (1%) containing BSA (2%) at room temperature, respectively. […]

T1 sequence (P05067 672-713 limits assumed): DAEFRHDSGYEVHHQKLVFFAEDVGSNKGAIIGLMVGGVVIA
T2 sequence (P05067 672-713 limits assumed): as above

SMILES: CN(C)c1ccc(C#Cc2ccc3c4c(cccc24)C(=O)N(CC[N+](C)(C)C)C3=O)cc1 [TGR63, 2-(6-((4-(dimethylamino)phenyl)ethynyl)-1,3-dioxo-1H-benzo[de]isoquinolin-2(3H)-yl)-N,N,N-trimethylethan-1-aminium]
- dissolution efficiency ([1]; Aβ42/inhibitor 1:1, Aβ42 10 µM): ~ 35%
- dissolution efficiency ([1]; Aβ42/inhibitor 1:2, Aβ42 10 µM): ~ 50%
- dissolution efficiency ([1]; Aβ42/inhibitor 1:5, Aβ42 10 µM): 80%
- interaction with Aβ42 peptides (1H NMR) (Aβ42 peptide): interacts with native and misfolded Aβ42 peptides
- Aβ plaques deposits, area of the hippocampus (APP/PS1 mice; AD (APP/PS1) mice, 5 mg/kg body weight/day from 6 to 14 months, vehicle 6.28%): 0.94 % area
- Aβ plaques deposits, area of the cortex (APP/PS1 mice; AD (APP/PS1) mice, 5 mg/kg body weight/day from 6 to 14 months, vehicle 8.87%): 1.94 % area
- reduction of Aβ deposits in the cortex (APP/PS1 mice; AD mice, versus vehicle): 78%
- reduction of Aβ deposits in the hippocampus (APP/PS1 mice; AD mice, versus vehicle): 85%

From patent US20230331679A1, “NAPHTHALENE MONOIMIDE COMPOUNDS AND METHODS THEREOF” (JAWAHARLAL NEHRU CENTRE FOR ADVANCED SCIENTIFIC RESEARCH, priority 2020, published 2023)
